Laboratory results published in patent US20250230193A1, “CYCLIC COMPOUND HAVING SELECTIVE KRAS INHIBITORY EFFECT ON HRAS AND NRAS” (CHUGAI SEIYAKU KABUSHIKI KAISHA, priority 2022, published 2025).

Experiments:
[1] = test system: human lung cancer strain NCI-H441; settings: read-out: NCI-H441 IC50; NCI-H441 cells, 4 days, CellTiter-Glo
[2] = target: GDP-bound KRAS wild-type protein (Homo sapiens, UniProt P01116); test: Binding to KRAS by surface plasmon resonance (SPR), Single Cycle Kinetics; settings: SPR, Single Cycle Kinetics; GDP-bound KRAS wild-type protein
[3] = target: GDP-bound HRAS wild-type protein (Homo sapiens, UniProt P01112); test: Binding to HRAS by surface plasmon resonance (SPR), Single Cycle Kinetics; settings: SPR; KD ratio class
Sequence of GDP-bound HRAS wild-type protein (P01112 whole entry): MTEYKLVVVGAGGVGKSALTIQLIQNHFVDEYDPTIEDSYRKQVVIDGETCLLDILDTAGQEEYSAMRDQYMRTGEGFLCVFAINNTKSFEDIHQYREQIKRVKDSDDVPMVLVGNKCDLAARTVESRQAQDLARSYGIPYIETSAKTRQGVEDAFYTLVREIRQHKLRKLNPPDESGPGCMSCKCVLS

[4] = target: GDP-bound NRAS wild-type protein (Homo sapiens, UniProt P01111); test: Binding to NRAS by surface plasmon resonance (SPR), Single Cycle Kinetics; settings: SPR; KD ratio class
Sequence of GDP-bound NRAS wild-type protein (P01111 whole entry): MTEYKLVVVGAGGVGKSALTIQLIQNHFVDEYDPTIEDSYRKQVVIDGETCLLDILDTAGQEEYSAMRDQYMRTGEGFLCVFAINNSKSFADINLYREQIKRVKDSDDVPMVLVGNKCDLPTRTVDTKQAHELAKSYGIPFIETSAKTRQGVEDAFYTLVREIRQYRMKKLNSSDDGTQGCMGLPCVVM

SMILES | IC50 [1] [nM] | Kd [2] [nM] | HRAS/KRAS (ratio of KD value for GDP-bound HRAS wild-type protein to KD value for KRAS) [3] | NRAS/KRAS (ratio of KD value for GDP-bound NRAS wild-type protein to KD value for KRAS) [4]
CCO[C@@H]1C[C@H]2C(=O)NC3(CCCC3)C(=O)N(C)[C@@H](C3CCCC3)C(=O)N(C)[C@H](C(=O)N(C)C)CC(=O)N(C)[C@@H](C)C(=O)N[C@@H]([C@@H](C)CC)C(=O)N(C)CC(=O)N(C)[C@H]3C/C=C\CCN(C3=O)[C@@H](CC3CCC(F)(F)CC3)C(=O)N(C)CC(=O)N[C@@H](CCc3cc(F)c(C(F)(F)F)c(F)c3)C(=O)N2C1 [PP1456] | 90 | 0.12 | A (a compound having 10 or more and less than 20 is denoted as A) | A (a compound having 10 or more and less than 20 is denoted as A)
CC[C@H](C)[C@@H]1NC(=O)[C@H](CC)N(C)C(=O)C[C@@H](C(=O)N(C)C)N(C)C(=O)[C@H](C2CCCC2)N(C)C(=O)C2(CCC2)NC(=O)[C@@H]2C[C@H](C)CN2C(=O)[C@H](CCc2cc(F)c(C(F)(F)F)c(F)c2)NC(=O)CN(C)C(=O)[C@H](CC2CCC(F)(F)CC2)N2CC/C=C\C[C@@H](C2=O)N(C)C(=O)CN(C)C1=O [PP1457] | 30.4 | 0.15 | A (a compound having 10 or more and less than 20 is denoted as A) | A (a compound having 10 or more and less than 20 is denoted as A)
CC[C@H](C)[C@@H]1NC(=O)[C@H](CC)N(C)C(=O)C[C@@H](C(=O)N(C)C)N(C)C(=O)[C@H](C2CCCC2)N(C)C(=O)C2(CCC2)NC(=O)[C@@H]2CC(F)(F)CN2C(=O)[C@H](CCc2cc(F)c(C(F)(F)F)c(F)c2)NC(=O)CN(C)C(=O)[C@H](CC2CCCCC2)N2CC/C=C\C[C@@H](C2=O)N(C)C(=O)CN(C)C1=O [PP1462] | 27.5 | 0.12 | A (a compound having 10 or more and less than 20 is denoted as A) | A (a compound having 10 or more and less than 20 is denoted as A)
CCO[C@@H]1C[C@H]2C(=O)NC3(CCC3)C(=O)N(C)[C@@H](C3CCCC3)C(=O)N(C)[C@H](C(=O)N(C)C)CC(=O)N(C)[C@@H](CSC)C(=O)N[C@@H]([C@@H](C)CC)C(=O)N(C)CC(=O)N(C)[C@H]3C/C=C\CCN(C3=O)[C@@H](CC3CCCCC3)C(=O)N(C)CC(=O)N[C@@H](CCc3cc(F)c(C(F)(F)F)c(F)c3)C(=O)N2C1 [PP1463] | 44.5 | 0.13 | A (a compound having 10 or more and less than 20 is denoted as A) | A (a compound having 10 or more and less than 20 is denoted as A)
CCC[C@H]1C(=O)N[C@@H]([C@@H](C)CC)C(=O)N(C)CC(=O)N(C)[C@H]2C/C=C\CCN(C2=O)[C@@H](CC2CCCCC2)C(=O)N(C)CC(=O)N[C@@H](CCc2cc(F)c(C(F)(F)F)c(F)c2)C(=O)N2C[C@H](OCC)C[C@H]2C(=O)NC2(CCC2)C(=O)N(C)[C@@H](C2CCCC2)C(=O)N(C)[C@H](C(=O)N(C)C)CC(=O)N1C [PP1464] | 32.3 | 0.15 | A (a compound having 10 or more and less than 20 is denoted as A) | A (a compound having 10 or more and less than 20 is denoted as A)
CCO[C@@H]1C[C@H]2C(=O)NC3(CCC3)C(=O)N(C)[C@@H](C3CCCC3)C(=O)N(C)[C@H](C(=O)N(C)C)CC(=O)N(C)[C@@H](CC)C(=O)N[C@@H]([C@@H](C)CC)C(=O)N(C)CC(=O)N(C)[C@H]3C/C=C\CCN(C3=O)[C@@H](CC3CCCCC3)C(=O)N(C)CC(=O)N[C@@H](CCc3cc(F)c(C(F)(F)F)c(F)c3)C(=O)N2C1 [PP1466] | 33.2 | 0.14 | A (a compound having 10 or more and less than 20 is denoted as A) | A (a compound having 10 or more and less than 20 is denoted as A)
CCO[C@@H]1C[C@H]2C(=O)NC3(CCC3)C(=O)N(C)[C@@H](C3CCCC3)C(=O)N(C)[C@H](C(=O)N(C)C)CC(=O)N(C)[C@@H](CC(C)C)C(=O)N[C@@H]([C@@H](C)CC)C(=O)N(C)CC(=O)N(C)[C@H]3C/C=C\CCN(C3=O)[C@@H](Cc3ccc(F)cc3)C(=O)N(C)CC(=O)N[C@@H](CCc3cc(F)c(C(F)(F)F)c(F)c3)C(=O)N2C1 [PP1488] | 23.2 | 0.081 | B (a compound having 3 or more and less than 10 is denoted as B) | A (a compound having 10 or more and less than 20 is denoted as A)
CC[C@H](C)[C@@H]1NC(=O)[C@H](CC2CC2)N(C)C(=O)C[C@@H](C(=O)N(C)C)N(C)C(=O)[C@H](C2CCCC2)N(C)C(=O)C2(CCC2)NC(=O)[C@@H]2C[C@@H](F)CN2C(=O)[C@H](CCc2cc(F)c(C(F)(F)F)c(F)c2)NC(=O)CN(C)C(=O)[C@H](Cc2ccc(C(F)(F)F)cc2)N2CC/C=C\C[C@@H](C2=O)N(C)C(=O)CN(C)C1=O [PP1497] | 10.7 | 0.022 | A (a compound having 10 or more and less than 20 is denoted as A) | A (a compound having 10 or more and less than 20 is denoted as A)
CC[C@H](C)[C@@H]1NC(=O)[C@H](CC2CC2)N(C)C(=O)C[C@@H](C(=O)N(C)C)N(C)C(=O)[C@H](C2CCCC2)N(C)C(=O)C2(CCC2)NC(=O)[C@@H]2C[C@@H](C(F)(F)F)CN2C(=O)[C@H](CCc2cc(F)c(C(F)(F)F)c(F)c2)NC(=O)CN(C)C(=O)[C@H](Cc2ccc(C(F)(F)F)cc2)N2CC/C=C\C[C@@H](C2=O)N(C)C(=O)CN(C)C1=O [PP1498] | 10.3 | 0.069 | A (a compound having 10 or more and less than 20 is denoted as A) | A (a compound having 10 or more and less than 20 is denoted as A)
CC[C@H](C)[C@@H]1NC(=O)[C@H](CC2CC2)N(C)C(=O)C[C@@H](C(=O)N2CCCC2)N(C)C(=O)[C@H](C2CCCC2)N(C)C(=O)C2(CCC2)NC(=O)[C@@H]2C[C@H](C)CN2C(=O)[C@H](CCc2cc(F)c(C(F)(F)F)c(F)c2)NC(=O)CN(C)C(=O)[C@H](Cc2ccc(C(F)(F)F)cc2)N2CC/C=C\C[C@@H](C2=O)N(C)C(=O)CN(C)C1=O [PP1510] | 34.5 | 0.11 | A (a compound having 10 or more and less than 20 is denoted as A) | AA (a compound having 20 or more is denoted as AA)
CC[C@H](C)[C@@H]1NC(=O)[C@H](CC2CC2)N(C)C(=O)C[C@@H](C(=O)N(C)C)N(C)C(=O)[C@H](C2CCCC2)N(C)C(=O)C2(CCCC2)NC(=O)[C@@H]2C[C@H](C)CN2C(=O)[C@H](CCc2cc(F)c(C(F)(F)F)c(F)c2)NC(=O)CN(C)C(=O)[C@H](Cc2ccc(C(F)(F)F)cc2)N2CC/C=C\C[C@@H](C2=O)N(C)C(=O)CN(C)C1=O [PP1511] | 13.7 | 0.099 | A (a compound having 10 or more and less than 20 is denoted as A) | AA (a compound having 20 or more is denoted as AA)
CCO[C@@H]1C[C@H]2C(=O)NC3(CC(F)(F)C3)C(=O)N(C)[C@@H](C3CCCC3)C(=O)N(C)C(C3CCCCC3)CC(=O)N(C)[C@@H](COC)C(=O)N[C@@H]([C@@H](C)CC)C(=O)N(C)CC(=O)N(C)[C@H]3C/C=C\CCN(C3=O)[C@@H](Cc3ccc(C(F)(F)F)cc3)C(=O)N(C)CC(=O)N[C@@H](CCc3cc(F)c(C(F)(F)F)c(F)c3)C(=O)N2C1 (stereo partly drawn) [PP1586] | 85.5 | 0.76 | A (a compound having 10 or more and less than 20 is denoted as A) | A (a compound having 10 or more and less than 20 is denoted as A)
CCO[C@@H]1C[C@H]2C(=O)NC3(CCC3)C(=O)N(C)[C@@H](C(CC)CC)C(=O)N(C)C(C(C)C)CC(=O)N(C)[C@@H](CC)C(=O)N[C@@H]([C@@H](C)CC)C(=O)N(C)CC(=O)N(C)[C@H]3C/C=C\CCN(C3=O)[C@@H](Cc3ccc(C(F)(F)F)cc3)C(=O)N(C)CC(=O)N[C@@H](CCc3cc(F)c(C(F)(F)F)c(F)c3)C(=O)N2C1 (stereo partly drawn) [PP1589] | 86.6 | 1.8 | A (a compound having 10 or more and less than 20 is denoted as A) | A (a compound having 10 or more and less than 20 is denoted as A)
CCO[C@@H]1C[C@H]2C(=O)NC3(CC(C)(C)C3)C(=O)N(C)[C@@H](C(CC)CC)C(=O)N(C)C(C(C)C)CC(=O)N(C)[C@@H](CC3CC3)C(=O)N[C@@H]([C@@H](C)CC)C(=O)N(C)CC(=O)N(C)[C@H]3C/C=C\CCN(C3=O)[C@@H](Cc3ccc(C(F)(F)F)cc3)C(=O)N(C)CC(=O)N[C@@H](CCc3cc(F)c(C(F)(F)F)c(F)c3)C(=O)N2C1 (stereo partly drawn) [PP1593] | 144 | 4.3 | A (a compound having 10 or more and less than 20 is denoted as A) | A (a compound having 10 or more and less than 20 is denoted as A)
CCO[C@@H]1C[C@H]2C(=O)NC3(CCC3)C(=O)N(C)[C@@H](C(CC)CC)C(=O)N(C)C(C(C)C)CC(=O)N(C)[C@@H](CC3CC3)C(=O)N[C@@H]([C@@H](C)CC)C(=O)N(C)CC(=O)N(C)[C@H]3C/C=C\CCN(C3=O)[C@@H](Cc3ccc(C(F)(F)F)cc3)C(=O)N(C)CC(=O)N[C@@H](CCc3cc(F)c(C(F)(F)F)c(F)c3)C(=O)N2C1 (stereo partly drawn) [PP1595] | 64.6 | 2.3 | A (a compound having 10 or more and less than 20 is denoted as A) | A (a compound having 10 or more and less than 20 is denoted as A)
